Reference: patent publication US7186755B2 (Helsinn Health Care S.A., priority 1997, dated 2007)
Where two headings read alike, the source gives them in different places.

Key:
[1] = rats, 14C nimesulide
[2] = human volunteers, 14C nimesulide

Systemic concentrations of nimesulide after dermal application [1]: no significant systemic concentrations
Systemic concentrations of nimesulide after dermal application [2]: no significant systemic concentrations
SMILES: CS(=O)(=O)Nc1ccc([N+](=O)[O-])cc1Oc1ccccc1 [Nimesulide]
